Assay [1] deals with T1, delF508-CFTR (Homo sapiens, UniProt P13569, DEL508-508).
T1 construct: expressed in transfected cells
The assay can be described thus: delF508-CFTR functional activity in primary human bronchial epithelial cells (HBECs), Multi-Transepithelial Clamp Circuit (MTECC-24) assay. The class given is cell-based. Particulars: for EC50: primary human delF508-CFTR bronchial epithelial cells, 24 h with compound, equivalent short circuit current (Ieq), forskolin plus potentiator, mean of at least two replicates, read-out: MTECC24-CFHBEC EC50; for MTECC24-CFHBEC Amax %: test compound added 24 h before assay, with potentiator (S)-3-amino-6-methoxy-N-(3,3,3-trifluoro-2-hydroxy-2-methylpropyl)-5-(trifluoromethyl)picolinamide, relative to 2 μM 3-(6-(1-(2,2-difluorobenzo[d][1,3]dioxol-5-yl)cyclopropane-1-carboxamido)-3-methylpyridin-2-yl)benzoic acid + 0.5 μM N-(2,4-di-tert-butyl-5-hydroxyphenyl)-4-oxo-1,4-dihydroquinoline-3-carboxamide. The text has this: Measurement of delF508-CFTR Functional Activity in Primary Human Bronchial Epithelial Cells (HBECs) Using Multi-Transepithelial Clamp Circuit (MTECC-24) Assay
This assay measures the functional activity of the CFTR channel (Chloride ion transport) in patient derived primary human bronchial epithelial cells with forskolin activation and in the presence of the CFTR corrector/potentiator combination.
Primary human delF508-CFTR bronchial epithelial cells were and cultured according to previously established methods (Neuberger, T. et, al., Methods in Molecular Biology, 2011, 741, pp 39-54). Briefly, before thawing the HBEC cells, T25 flasks were coated with 2 mL of 3T3 conditioned media (MTI-GlobalStem, Cat #GSM9100) for at least 12 hours in 37° C. CO2 incubator. 1.7×10^5 cells were seeded into one T25 flask with 5 mL of HBE growth media (BEBM with supplements (Lonza, Cat #CC-3170) with 10 nM of retinoic acid (Sigma, Cat #R-2625) and 1% of PSA (Hyclone, Cat #SV30079.01). Media was changed every day till the cells were 100% confluent. Cells were seeded into T75 flasks (pre-coated with 5 mL of 3T3 conditioned media for more than 12 hrs) at 4.95×10^5 cells/T75 flask in 15 mL of HBE growth media. Flasks were fed everyday with fresh HBE growth media until the cells were confluent. 24-well transwell plates (Corning, Cat #3378) were coated with 3T3 conditioned media (70 μL on top of the filter, 350 μL to the bottom of the well) overnight in the 37° C. CO2 incubator. Cells were seeded in the pre-coated 24-well transwell plates at 1.7×10^5 cell/well with 700 μL of growth media at the bottom of the well and 200 μL of growth media at the top of the filter. After 24 hrs, cells were switched into HBE differentiation media ((DMEM/F12 (Gibco, Cat #11330-032) supplement with 2% Ultroser G (Pall, Cat #15950-017), 2% of Fetal Clone II (Hyclone, Cat #SH30066.03), 0.25% Bovine Brain Extract (Lonza, Cat #CC-4098), 1% of PSA, 2.5 μg/mL of Insulin (Sigma, Cat #19278), 20 nM of Hydrocortisone (Sigma, Cat #H0888), 500 nM of Triiodothyronine (Sigma, Cat #T6397), 2.5 μg/mL of Transferrin (Sigma, Cat #T8158), 250 nM of Ethanolamine (Sigma, Cat #E0135), 1.5 μM of Epinephrine (Sigma, Cat #E4250), 250 nM of Phosphoethanolamine (Sigma, Cat #P0503), 10 nM of retinoic acid)) with 200 μL on top of the filter (apical side) and 700 μL at the bottom of the well (basolateral side). Cells were fed every other day with the differentiation media. After 4 days, cells were exposed to air/liquid interface. Then cells were fed every other day for 4 weeks before fully differentiated.
Cells were washed with 3 mM DTT in PBS at 70 ul/well for 30 min at 37° C. 6 days before the assay. 3 days before the assay, cells were washed again with PBS at 70 ul/well for 30 min at 37° C. Then cells were treated with compound for 24 hrs before the assay.
Following 24 hr treatment with compound, cells were transferred into plates containing 750 ul of assay media on basolateral side and 250 ul on apical side (Assay medium: F-12 Coon's modified, 20 mM HEPES pH7.4 with TRIS Base, No FCS or bicarbonate). The plates wee then transferred to the heated plate compartments (basolateral buffer temperature ˜36.5° C. on the heating block) of the TECC24 system for 45 mins prior to measurements.
Modulators were added sequentially as follows while the TECC24 instrument recorded the equivalent short circuit current (Ieq):
Prior to dilution into assay medium the stocks were as follows: • Benzamil stock: 10 mM in DMSO • Forskolin Stock: 50 mM in DMSO • N-(2,4-di-tert-butyl-5-hydroxyphenyl)-1,4-dihydro-4-oxoquinoline-3-carboxamide: 50 mM in DMSO • (S)-3-amino-6-methoxy-N-(3,3,3-trifluoro-2-hydroxy-2-methylpropyl)-5-(trifluoromethyl)picolinamide: 50 mM stock 100% DMSO • Bumetanide stock: 20 mM in EtOH
The data was normalized using the median signal from wells treated with 0.1% DMSO as a baseline. Curve fitting and EC50 calculations were performed using the following equation: […]

Assay [2] deals with T1, delF508-CFTR. The assay is described as follows: Measurement of delF508-CFTR-HRP surface expression in CFBE41o- cells. The class given is cell-based. Conditions: for EC50: HRP-tagged delF508-CFTR in CFBE41o- cells, 24 h with compound, luminescence, 10-point curve, top 10 μM; for Emax: efficacy relative to reference compound 3-(6-(1-(2,2-difluorobenzo[d][1,3]dioxol-5-yl)cyclopropane-1-carboxamido)-3-methylpyridin-2-yl)benzoic acid, CFBE41o- cells, 24 h, read-out: DelF508-CFTR-HRP Amax %. Summed up: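 CFBE41o- cells stably expressing delF508-CFTR with HRP in the fourth extracellular loop, induced with 500 ng/mL doxycycline for 48 h, then treated with compound (top 10 μM, 10-point 3-fold) for 24 h at 37° C. Surface HRP detected by luminescence with cell-impermeant substrate; EC50 from logistic fit of triplicates, normalized to lowest concentration.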

The structures appear in SMILES notation.

T1 sequence (P13569 with tags, fused parts or gaps DEL508-508): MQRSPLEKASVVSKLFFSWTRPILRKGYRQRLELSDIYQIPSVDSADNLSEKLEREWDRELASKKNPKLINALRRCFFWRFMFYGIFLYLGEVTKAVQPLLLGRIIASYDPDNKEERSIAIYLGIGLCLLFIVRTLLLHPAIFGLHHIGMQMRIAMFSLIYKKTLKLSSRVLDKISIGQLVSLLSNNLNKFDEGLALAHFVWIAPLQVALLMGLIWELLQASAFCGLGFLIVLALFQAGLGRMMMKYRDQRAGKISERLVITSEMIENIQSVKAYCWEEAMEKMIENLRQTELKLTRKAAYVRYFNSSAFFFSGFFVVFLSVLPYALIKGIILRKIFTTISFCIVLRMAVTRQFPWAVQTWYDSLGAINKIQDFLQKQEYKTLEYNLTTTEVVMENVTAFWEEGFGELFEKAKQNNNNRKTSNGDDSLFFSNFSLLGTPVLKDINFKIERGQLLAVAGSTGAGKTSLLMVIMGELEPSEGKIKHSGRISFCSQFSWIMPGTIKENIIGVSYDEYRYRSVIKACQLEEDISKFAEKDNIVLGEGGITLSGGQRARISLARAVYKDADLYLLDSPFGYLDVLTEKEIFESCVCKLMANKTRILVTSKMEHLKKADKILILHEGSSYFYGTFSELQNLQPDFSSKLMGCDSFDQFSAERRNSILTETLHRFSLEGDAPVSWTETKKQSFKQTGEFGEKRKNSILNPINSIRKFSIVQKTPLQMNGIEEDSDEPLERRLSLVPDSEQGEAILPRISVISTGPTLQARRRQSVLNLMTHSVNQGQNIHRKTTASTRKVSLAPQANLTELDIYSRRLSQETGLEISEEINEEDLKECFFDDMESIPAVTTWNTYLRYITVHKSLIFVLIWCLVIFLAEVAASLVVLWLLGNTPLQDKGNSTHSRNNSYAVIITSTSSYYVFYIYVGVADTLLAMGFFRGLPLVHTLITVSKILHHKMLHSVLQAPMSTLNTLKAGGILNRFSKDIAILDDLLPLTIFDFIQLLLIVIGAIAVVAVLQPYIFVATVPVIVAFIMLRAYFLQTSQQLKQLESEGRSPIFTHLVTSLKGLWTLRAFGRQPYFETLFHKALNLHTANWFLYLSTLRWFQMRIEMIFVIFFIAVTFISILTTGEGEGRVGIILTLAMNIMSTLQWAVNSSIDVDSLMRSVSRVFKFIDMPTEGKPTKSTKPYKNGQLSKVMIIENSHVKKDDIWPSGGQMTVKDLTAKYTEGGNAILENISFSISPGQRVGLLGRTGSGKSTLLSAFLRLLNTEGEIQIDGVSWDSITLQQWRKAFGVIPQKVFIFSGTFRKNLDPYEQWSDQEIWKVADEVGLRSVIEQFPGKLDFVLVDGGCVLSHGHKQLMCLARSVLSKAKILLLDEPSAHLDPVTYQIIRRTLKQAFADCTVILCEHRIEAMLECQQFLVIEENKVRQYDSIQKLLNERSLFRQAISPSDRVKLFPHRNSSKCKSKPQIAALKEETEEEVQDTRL

Usually EC50 stands for the midpoint of the concentration-response curve. Turning to `Cc1ccccc1-c1nc(NS(=O)(=O)c2cccc(N3CCC[C@H](CCC(=O)O)C3)n2)ccc1C(F)(F)F` (single isomer, unassigned) [Compound 62], on delF508-CFTR [1], the EC50 worked out at 9 nM and the “MTECC24-CFHBEC Amax %” value is reported as 150%. On delF508-CFTR [2], the EC50 is 1220 nM.
Take `Cc1ccccc1-c1nc(NS(=O)(=O)c2cccc(N3CCC[C@@H](CCC(=O)O)C3)n2)ccc1C(F)(F)F` (single isomer, unassigned) [Compound 63]: on delF508-CFTR [1], the half-maximal effective concentration (EC50) is 17 nM and the “MTECC24-CFHBEC Amax %” value turned out to be 149%. Further, the concentration giving a half-maximal response (EC50) on delF508-CFTR [2] turned out to be 1460 nM.
`Cc1ccc(F)cc1-c1nc(NS(=O)(=O)c2cccc(N3CCC[C@@](C)(CC(=O)O)C3)n2)ccc1C(F)(F)F` (single isomer, unassigned) [Compound 64]: on delF508-CFTR [1], the concentration for a half-maximal effect (EC50) was determined as 2 nM and the “MTECC24-CFHBEC Amax %” value turned out to be 107%. The EC50 on delF508-CFTR [2] was found to be 1330 nM.
Regarding `Cc1ccc(F)cc1-c1nc(NS(=O)(=O)c2cccc(N3CCC[C@](C)(CC(=O)O)C3)n2)ccc1C(F)(F)F` (single isomer, unassigned) [Compound 65], at delF508-CFTR [1], the half-maximal effective concentration (EC50) was found to be 31 nM and the “MTECC24-CFHBEC Amax %” value is reported as 155%. At delF508-CFTR [2], the EC50 was 1730 nM.
Take `CCN(CCC(=O)O)c1cccc(S(=O)(=O)Nc2ccc(C(F)(F)F)c(-c3cccc(F)c3C)n2)n1` [Compound 56, 3-(ethyl(6-(N-(6-(3-fluoro-2-methylphenyl)-5-(trifluoromethyl)pyridin-2-yl)sulfamoyl)pyridin-2-yl)amino)propanoic Acid]: at delF508-CFTR [1], the concentration giving a half-maximal response (EC50) was 373 nM and the “MTECC24-CFHBEC Amax %” value is 131%. At delF508-CFTR [2], the half-maximal effective concentration (EC50) was 2170 nM and the Emax is 906%.
On to `Cc1ccccc1-c1nc(NS(=O)(=O)c2cccc(N3CCC[C@@H](CC(=O)O)C3)n2)ccc1C(F)(F)F` [Compound 60, (S)-2-(1-(6-(N-(6-(o-tolyl)-5-(trifluoromethyl)pyridin-2-yl)sulfamoyl)pyridin-2-yl)piperidin-3-yl)acetic Acid], for which, on delF508-CFTR [1], the concentration for a half-maximal effect (EC50) was determined as 65 nM and the “MTECC24-CFHBEC Amax %” value was 128%. On delF508-CFTR [2], the concentration for a half-maximal effect (EC50) was found to be 1910 nM and the Emax was determined as 997%.
In the case of `Cc1ccccc1-c1nc(NS(=O)(=O)c2cccc(N(C)CCCCC(=O)O)n2)ccc1C(F)(F)F` [Compound 66, 5-(methyl(6-(N-(6-(o-tolyl)-5-(trifluoromethyl)pyridin-2-yl)sulfamoyl)pyridin-2-yl)amino)pentanoic Acid], at delF508-CFTR [1], the concentration giving a half-maximal response (EC50) was 185 nM and the “MTECC24-CFHBEC Amax %” value is on record as 133%. Further, the EC50 at delF508-CFTR [2] is 1600 nM.
Take `Cc1c(F)cccc1-c1nc(NS(=O)(=O)c2cccc(N(C)CCCCC(=O)O)n2)ccc1C(F)(F)F` [Compound 67, 5-((6-(N-(6-(3-fluoro-2-methylphenyl)-5-(trifluoromethyl)pyridin-2-yl)sulfamoyl)pyridin-2-yl)(methyl)amino)pentanoic Acid]: on delF508-CFTR [1], the EC50 is 161 nM and the “MTECC24-CFHBEC Amax %” value was 168%. Further, the EC50 on delF508-CFTR [2] came to 1630 nM.
On to `Cc1ccc(F)cc1-c1nc(NS(=O)(=O)c2cccc(N(C)CCCCC(=O)O)n2)ccc1C(F)(F)F` [Compound 68, 5-((6-(N-(6-(5-fluoro-2-methylphenyl)-5-(trifluoromethyl)pyridin-2-yl)sulfamoyl)pyridin-2-yl)(methyl)amino)pentanoic Acid], for which, on delF508-CFTR [1], the concentration giving a half-maximal response (EC50) is 423 nM and the “MTECC24-CFHBEC Amax %” value worked out at 116%. Also, on delF508-CFTR [2], the concentration giving a half-maximal response (EC50) turned out to be 1350 nM and the Emax turned out to be 996%.
For the compound `CCN(CCC(=O)O)c1cccc(S(=O)(=O)Nc2ccc(C(F)(F)F)c(-c3ccccc3C(C)C)n2)n1` [Compound 70, 3-(ethyl(6-(N-(6-(2-isopropylphenyl)-5-(trifluoromethyl)pyridin-2-yl)sulfamoyl)pyridin-2-yl)amino)propanoic Acid], the EC50 was 68 nM on delF508-CFTR [1] and 1570 nM at delF508-CFTR [2]. Further, on delF508-CFTR [1], the “MTECC24-CFHBEC Amax %” value was 126%.
